Read-outs that look alike come from different tables or passages of the source.
Tests used:
Assay type in all cases: cell-based
[1] = tested on: NO production in macrophage RAW 264.7 cells; assay: Inhibition of LPS-induced NO production in RAW 264.7 macrophages (Griess); conditions: Mus musculus
Experimental: (§1) RAW 264.7 cells were stocked in Dulbecco’s Modified Essential and grown at the condition of 37 °C in DMEM supplemented with 10% heat-inactivated FBS, streptomycin sulfate (100 µg/mL), and penicillin (100 units/mL) in a humidified environment of 5% CO2. The RAW 264.7 cells were pre-incubated every two days.
The RAW 264.7 cells were stimulated with or without 1 μg/mL of LPS (lipopolysaccharide), which was purchased from Sigma Chemical Co. (St. Louis, MO, USA), for 24 h with or without 0.5% DMSO, celastrol, and isolated compounds at the indicated concentrations. The culture supernatant (100 μL) was then reacted with 100 μL of Griess reagent. After the Griess assay, the remaining cells were used to screen for their viability using colorimetric assay-MTT (Sigma Chemical Co., St. Louis, MO, USA).

[2] = tested on: Hep G2 cells; assay: Cytotoxicity assay (MTT) against Hep G2 cell line; conditions: Homo sapiens
Experimental: According to a previous procedure, the cytotoxic evaluation of 1–8 against the growth of human hepatocellular carcinoma (Hep G2) cell line was carried out. The positive control was ellipticine, a powerful anticancer medication with various modes of action. The cancer cells were grown in Dulbecco’s Modified Essential Medium (DMEM) at 37 °C in a 5 % CO2 environment with 10% fetal bovine serum (FBS), 1% penicillin and streptomycin, and 1% L-glutamine. The investigated compounds were added at concentrations ranging from 0.5 to 128 µg/mL by dissolving in DMSO (20 mg/mL), and the incubation was carried out once more for 72 h under the same conditions. Following the procedure, an MTT solution (10 µL, 5 mg/mL) was added to each well. The percentage of cell viability vs. sample concentration was plotted using SigmaPlot 10 (Systat Software Inc., San Jose, CA, USA) to calculate the IC50 values.

[3] = Cell viability assay (MTT) on RAW 264.7 cells; conditions: mouse, read-out: cytotoxicity toward RAW 264.7 cells IC50
Experimental: as §1
The cell viability assay was used to determine the cytotoxic effect of the isolated compounds on RAW 264.7 cells. At a density of 1 × 10^5 cells per well, RAW 264.7 cells were seeded on a 96-well plate and allowed to adhere for 4 h. Then, the cells were treated with 0.5% DMSO, celastrol, and isolated compounds at the indicated concentrations. Celastrol was used as a positive control. After incubating 24 h, the viable cells were measured with a colorimetric assay based on the mitochondria’s ability in viable cells to reduce MTT [18]. The viability cells were treated with vehicle only and were defined as 100% viable. [OD570 (treated cell culture) × 100]/OD570 was the formula used to determine the percentage of macrophage surviving cells after treatment (vehicle control).

[4] = RAW264.7, RAW 264.7 cells, 1 μg/mL LPS, 24 h, Griess reagent, mean of three experiments ± SD, read-out: NO Production (IC50)
[5] = HepG2, 72 h, read-out: Cytotoxicity (IC50, µM)

SMILES	IC50 [1, 4]	IC50 [2, 5]	IC50 ([2]; HepG2, Hep G2 cells, 72 h, MTT, mean of three experiments ± SD, read-out: Cytotoxicity (IC50))	IC50 at 24 h [3]	IC50 ([1]; RAW264.7, 24 h, read-out: NO Production (IC50, µM))
CC1(C)C=Cc2c(ccc3c(=O)c(-c4ccc5c(c4)OCO5)coc23)O1 [Compound 7, calopogoniumisoflavone B]	> 100 µM	66.6 ± 0.5 µM			
Cc1c2ccncc2c(C)c2c1[nH]c1ccccc12 [Ellipticine, ellipticine, reference compound]			0.43 ± 0.03 µM		
COc1cc2c(=O)c(-c3ccc4c(c3)OCO4)coc2c2c1OC(C)(C)C=C2 [Compound 6, durmillone]	> 100 µM	71.6 ± 0.6 µM			
COc1ccc(-c2coc3c4c(c(OC)cc3c2=O)OC(C)(C)CC4)cc1 [Compound 1, placovinone A]	13.7 ± 0.5 µM	8 ± 0.2 µM		79.2 µM	
CC1=C(O)C(=O)C=C2C1=CC=C1[C@@]2(C)CC[C@@]2(C)[C@@H]3C[C@](C)(C(=O)O)CC[C@]3(C)CC[C@]12C [Celastrol, celastrol, reference compound]					1 ± 0.1 µM
COc1cc2c(cc1-c1coc3c4c(c(OC)cc3c1=O)OC(C)(C)C=C4)OCO2 [Compound 5, ichthynone]	> 100 µM	99.1 ± 0.9 µM			

The next lines start with results.

IC50 [1, 4]	SMILES	IC50 [2, 5]	IC50 ([2]; HepG2, Hep G2 cells, 72 h, MTT, mean of three experiments ± SD, read-out: Cytotoxicity (IC50))	IC50 at 24 h [3]	IC50 ([1]; RAW264.7, 24 h, read-out: NO Production (IC50, µM))
54.7 ± 0.2 µM	COc1ccc(-c2coc3c4c(ccc3c2=O)OC(C)(C)C=C4)cc1OC [Compound 8, 4′,5′-dimethoxy-6,6-dimethylpyranoisoflavone]	35.6 ± 0.3 µM			
15.5 ± 0.4 µM	COc1ccc(CC(=O)c2cc(OC)c3c(c2O)C=CC(C)(C)O3)cc1 [Compound 4, placovinone D]	23.4 ± 0.5 µM		42.6 µM	
31 ± 0.3 µM	COc1cc(OC)c(C(=O)C(=O)c2cc(OC)c3c(c2O)C=CC(C)(C)O3)cc1OC [Compound 2, placovinone B]	19.8 ± 1.5 µM			
47.4 ± 0.3 µM	COc1cc(OC)c(OC)cc1CC(=O)c1cc(OC)c2c(c1O)C=CC(C)(C)O2 [Compound 3, placovinone C]	22.9 ± 0.5 µM			
